Source: patent US20100297102A1, “SEROTONIN 5-HT3A RECEPTORS IN TREATMENT OF NEUROLOGICAL AND PSYCHIATRIC DISORDERS” (priority 2006, published 2010)

Columns and labels:
5-HT3 receptor = molecular target: T1, 5-HT3 receptor (Mus musculus, UniProt P23979); test: Whole-cell patch-clamp of 5-HT3 receptor-mediated inward current in EGFP-positive neurons/neuroblasts in acute slices; type: cell-based, mice
T1 sequence (P23979 24-489): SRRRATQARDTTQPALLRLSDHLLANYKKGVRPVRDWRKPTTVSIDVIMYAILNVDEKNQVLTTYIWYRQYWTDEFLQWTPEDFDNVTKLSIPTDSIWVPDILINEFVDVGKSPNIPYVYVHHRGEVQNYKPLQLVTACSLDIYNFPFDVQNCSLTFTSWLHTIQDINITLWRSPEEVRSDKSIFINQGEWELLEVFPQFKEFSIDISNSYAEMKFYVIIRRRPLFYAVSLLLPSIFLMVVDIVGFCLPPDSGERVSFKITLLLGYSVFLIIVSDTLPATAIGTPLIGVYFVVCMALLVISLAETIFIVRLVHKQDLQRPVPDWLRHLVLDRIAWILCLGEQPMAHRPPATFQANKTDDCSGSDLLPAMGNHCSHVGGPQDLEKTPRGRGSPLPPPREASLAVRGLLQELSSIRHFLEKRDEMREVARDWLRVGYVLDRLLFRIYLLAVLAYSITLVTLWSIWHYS
From the text: We thus performed patch-clamp recordings from cells with the typical migratory morphology in the DMS using acute sagittal slices from transgenic animals (FIG. 3, A).
Slice preparation and electrophysiology. 250-350 μm-thick parasagittal brain sections (for recordings in hippocampus, cortex, RMS and DMS) or coronal brain sections (for recordings in amygdala) were made from transgenic mice (P8-P42) using a vibratome (Leica VT1000S). Whole-cell voltage and current clamp recordings were made from visually identified, EGFPpositive neurons using and EPC9 amplifier (HEKA) and an upright microscope (Zeiss Axioskop FS2) equipped with IR-DIC and standard epifluorescence. […] Slices were continuously superfused with ACSF containing (in mM): 120 NaCl, 3.5 KCl, 2.5 CaCl2, 1.3 MgSO4, 1.25 NaH2PO4, 25 NaHCO3, 25 glucose. The presence of functional 5-HT3 receptors was assessed by application of 100 μM 5-HT (dissolved in ACSF) via pressure 12 ejection from a second pipette connected to a picospritzer. Cells were voltage clamped at −60 mV. Signals were filtered at 1-5 kHz, sampled at 2-10 kHz and off-line analysis was performed using Igor Pro (Wavemetrics).

EGFP-positive cells = test: Organotypic slice culture: migration/distribution of EGFP-positive neuroblasts; type: cell-based, mice
Protocol: The presence of functional 5-HT3 receptors on neuroblasts raised the question whether the receptor activation plays a role in the migration and maturation of GABAergic inhibitory neurons in postnatal life. To this end, studies were carried out in organotypic slices obtained from P3 transgenic mice (n=8) and cultured in vitro for 6 days. There were clear alterations in the cortical distribution of EGFP-positive cells in slices treated with the specific 5-HT3 antagonist tropisetron (1 μM) compared to corresponding untreated slices (FIGS. 4, A and B). The decrease in the number of EGFP-expressing cells in tropisetron-treated animals in cortex and hippocampus indicates a deficit in the migration of these cells, rather than cell death since the neuroblasts are still clearly visible in the stream. […] By P3 when slices were made, many EGFP-expressing cells have already reached their destination.
Organotypic slice culture experiments. Organotypic slice cultures were performed as previously described. After 6 days in culture, slices, control or treated with tropisetron (Sigma), were fixed for 1 hr in 4% PFA and processed for immunostaining using polyclonal rabbit anti-EGFP antibody. Cell counts were performed in pairs of matching tropisetron-treated and untreated slices. EGFP-positive cells were counted in deep, in superficial cortical layers and in stratum radiatum of the hippocampus within three standardized rectangular regions of 200×150 μm2 for each region. Data from control and treated slices were analyzed by Student's t test.

transgenic mice = test: Toxicity of BrdU injections in birthdating experiments; type: in vivo
Protocol: Birthdating analysis. Pregnant mice and P7 transgenic mice were injected intraperitoneally with 50 mg/kg or 300 mg/kg BrdU (Sigma) (body weight), sacrificed after 1 or 4 weeks and processed for immunostaining.
Five BrdU injections (50 mg/kg, intraperitoneally) were administered every 2 hrs apart for 8 hours at E12.5, E14.5, E16.5 and P7 (FIG. 10). […] To avoid a cumulative effect, 5 pulses of BrdU (one pulse per day) were administered from P7 to P12. At P7 two treatments, one with 50 mg/kg and with 300 mg/kg of BrdU were carried.

[1] = after intraperitoneal injection; cited from earlier work
[2] = tropisetron 1 μM, slices from P3 transgenic mice, 6 days in culture, n=8

SMILES: NCCc1c[nH]c2ccc(O)cc12 [5-HT, 5-hydroxytryptamine]
- 5-HT3 receptor-mediated inward current, average amplitude (5-HT3 receptor; application of 5-HT (100 μM), mature/spiking neuroblasts in the DMS, 18 out of 22 responded): −46.0±10.5 pA

SMILES: CN1[C@@H]2CC[C@H]1C[C@@H](OC(=O)c1cc(Cl)cc(Cl)c1)C2 [MDL72222]
- block of 5-HT3 receptor-mediated inward current evoked by 100 μM 5-HT (5-HT3 receptor; whole-cell voltage clamped EGFP-positive neurons, n=5 (FIG. 1B)): can be blocked

SMILES: CN1[C@@H]2CC[C@H]1C[C@@H](OC(=O)c1c[nH]c3ccccc13)C2 [tropisetron]
- cell density in the DMS (EGFP-positive cells; slices from P3 transgenic mice treated with tropisetron, compared to control (FIG. 4)): increase in cell density in the DMS
- number of EGFP positive cells in hippocampus, of control levels (EGFP-positive cells; tropisetron 100 nM, n=3): 74.7%
- number of EGFP positive cells in superficial cortical layers, of control levels (EGFP-positive cells; tropisetron 100 nM, n=3): 81.1%
- number of EGFP positive cells in the deep cortex, of control levels (EGFP-positive cells; tropisetron 100 nM, n=3): 70.8%
- number of EGFP positive cells in deep cortical layers, of the control level (EGFP-positive cells; [2]): 68.4%
- number of EGFP positive cells in stratum radiatum of the hippocampus, of the control level (EGFP-positive cells; [2]): 72.6%
- number of EGFP positive cells in superficial layers, of the control level (EGFP-positive cells; [2]): 76.4%

SMILES: O=c1[nH]c(=O)n([C@H]2C[C@H](O)[C@@H](CO)O2)cc1Br [BrdU]
- toxic effects (transgenic mice; P16 mice after BrdU treatment, 50 mg/kg and 300 mg/kg i.p., dose-dependent): Hair loss and motor deficits
- EGFP-positive cell number in the granule cell layer and periglomerular cell layer of the OB (transgenic mice; at P16, injected at P7 with 50 mg/kg BrdU, compared to untreated transgenic control mice (FIG. 10F)): Reduction
- EGFP-positive cell number in the granule cell layer and periglomerular cell layer of the OB (transgenic mice; at P16, injected at P7 with 300 mg/kg BrdU, compared to untreated transgenic control mice (FIG. 10G)): Reduction
- number of EGFP-positive cells in the cortex, the RMS and OB (transgenic mice; at P16 after postnatal treatment with BrdU): reduction
- persistence in the circulation [1]: less than a few hours
